“And” between values parts separate entries of the source, which are not always exact repeats. Equal values may be shown once. Read-outs that look alike come from different tables or passages of the source.

The experiment concerns Armyworms (Spodoptera exigua). The experiment in a line: Contact study on armyworm first instar larvae. It is filed as in vivo. The note with it: for mode of insecticidal action: contact exposure of first instar larvae. The source says:
Contact Study of MOI 201 on Armyworms (Spodoptera exigua)
Objective: Observe the mode of action and the symptoms caused by 0.6% oxymatrine on larvae of armyworms, as well as to quantify the time required for the larvae to become paralyzed or dead.
Method: Larvae of beet armyworm were taken as first In-star stage and placed on a microscope slide under a stereomicroscope. A drop of the test product was delivered over them and the larvae were left to soak for 30 seconds. Excess liquid was absorbed with a paper towel and the larvae were observed under the microscope. The products tested were Spinosad at 0.3%, Permethrin at 1%, and 0.6% oxymatrine at 800× and 1000× dilutions. Time 1 indicates the time it took before the larva was unable to perform normal activities like crawling, feeding, etc. Time 2 is the additional time needed for complete elimination/death.

The mark [1] stands for this setting: Spinosad at 0.3%, Permethrin at 1%, 30 s soak, average of 5 reps.
[2] abbreviates: Spinosad at 0.3%, Permethrin at 1%, 30 s soak, reps 1-5.

In the case of `CC1(C)C(C=C(Cl)Cl)C1C(=O)OCc1cccc(Oc2ccccc2)c1` (centres unmarked) [Permethrin], the “Time 1: time required for paralysis or convulsions, Average” value is reported as 1.22 min; the “period of time to affect the insect's basic functions” value was found to be 1.2 min; the “mode of insecticidal action” value is recorded as “work as contact insecticides”. In addition, the “Time 2: time between paralysis and death, Average” value under setting [1] is 333.60 min. Also, the “Time 2: time between paralysis and death, single replicate” value under setting [2] is 447 min and 428 min and 397 min and 97 min and 299 min.
For Spinosad, the “mode of insecticidal action” value is given as “work as contact insecticides”. Moreover, under setting [1], the “Time 1: time required for paralysis or convulsions, Average” value worked out at 6.99 min; the “Time 2: time between paralysis and death, Average” value came out at 289.00 min. Moreover, under setting [2], the “Time 1: time required for paralysis or convulsions, single replicate” value is 7.58 min and 8.46 min and 6.33 min and 6.4 min and 6.17 min; the “Time 2: time between paralysis and death, single replicate” value was 146 min and 180 min and 363 min and 373 min and 383 min. Besides, the “period of time to affect the insect's basic functions” value (text summary of Time 1, Spinosad 0.3%, Permethrin 1%, 0.6% oxymatrine at 800x and 1000x dilutions) is reported as 7.0 min.

Values taken from US20080300225A1, “PESTICIDAL FORMULATION CONTAINING OXYMATRINE OR MATRINE” (Marrone Organic Innovations, priority 2007, published 2008).
